Where two headings read alike, the source gives them in different places.
Tests used:
human Cav3.3 = molecular target: T1, human Cav3.3 (Homo sapiens, UniProt Q9P0X4); experiment: FLIPR calcium flux assay, Cav3.3; assay type: cell-based
T1 construct: expressed in transfected cells; host or cells: HEK293 FlpIn T-Rex cells (Invitrogen)
Procedure: (§1) HEK293 FlpIn T-Rex cells (Invitrogen, CA, United States) stably expressing human Cav3.1, Cav3.2, or Cav3.3 were maintained in Dulbecco’s Modified Eagle Medium (DMEM) supplemented with 10% foetal bovine serum (FBS), 1% penicillin-streptomycin (P/S) at 37°C, and 5% CO2 as previously described ([Bladen et al., 2021]; [Udoh et al., 2022]). Hygromycin (80 μg/mL) and blasticidin (15 μg/mL) were used as selection antibiotics and cells were passaged at 80% confluency. For experiments, cells were resuspended in Leibovitz’s L-15 media (containing 1% FBS, 1% P/S, 15 mM glucose, 2 μg/mL tetracycline), plated in black, clear-bottomed poly-D-lysine-coated 96-well plates (90 μL) (Corning, NY, United States), and incubated overnight in ambient air at 37°C. All compounds tested in cellular assays were prepared as stock solutions in DMSO and final DMSO concentration was 0.1%.
(§2) Intracellular calcium flux was measured using a fluorometric imaging plate-reader (FLIPR) Calcium 5 Assay Kit and FlexStation 3 Microplate Reader (Molecular Devices, San Jose, United States). Calcium 5 dye (90 μL) prepared in low potassium HBSS (Thermo Fisher Scientific) containing (in mM) 145 NaCl, 22 HEPES, 0.338 Na2HPO4, 4.17 NaHCO3, 0.441 KH2PO4, 0.407 MgSO4, 0.493 MgCl2, 1.26 CaCl2, 5.56 glucose, and […] with pH 7.4 was applied to each well and incubated for 1 h at 37°C, ambient air prior to testing.
(§3) Fluorescence readings were taken at 2 s intervals (λ excitation = 485 nm, λ emission = 525 nm). Following 2 min baseline reading, 20 μL of SB2193, SB2193F, or NNC 55-0396 (10 nM—10 μM) was added to cells and read for 5 min, then CaCl2 (10 mM) was added and read for 3 min. Baseline fluorescence averaged over the 20 s interval preceding CaCl2 addition was subtracted and normalized to the vehicle response. Changes in fluorescence were measured in relative fluorescence units (RFU). All compounds were assayed in ≥ five independent experiments (n = 5–8) performed in duplicate. Order of compound addition and location on the plate were varied between replicates. Data was fit to a four-parameter non-linear dose-response curve using GraphPad Prism 8.2.0 software (La Jolla, United States) to determine IC50 values.

human Cav3.1 = molecular target: T2, human Cav3.1 (Homo sapiens, UniProt O43497); experiment: FLIPR calcium flux assay, Cav3.1; assay type: cell-based
T2 construct: expressed in transfected cells; host or cells: HEK293 FlpIn T-Rex cells (Invitrogen)
Procedure: as §1, §2, §3

T-type channels = tested on: T-type channels; parameters: method as in Kevin et al., 2022; conditions: single 10 μM concentration, FLIPR calcium flux and whole-cell patch clamp, ref Kevin et al., 2022; cited from earlier work
[1] = tested on: cannabinoid CB1 receptors; parameters: method as in Kevin et al., 2022; conditions: ref Kevin et al., 2022; cited from earlier work
human Cav3.2 = molecular target: T3, human Cav3.2 (Homo sapiens, UniProt O95180); experiment: FLIPR calcium flux assay, Cav3.2; assay type: cell-based
T3 construct: expressed in transfected cells; host or cells: HEK293 FlpIn T-Rex cells (Invitrogen)
Procedure: Intracellular calcium flux was measured using a fluorometric imaging plate-reader (FLIPR) Calcium 5 Assay Kit and FlexStation 3 Microplate Reader (Molecular Devices, San Jose, United States). […]
Fluorescence readings were taken at 2 s intervals (λ excitation = 485 nm, λ emission = 525 nm). […] Baseline fluorescence averaged over the 20 s interval preceding CaCl2 addition was subtracted and normalized to the vehicle response. Changes in fluorescence were measured in relative fluorescence units (RFU). […]

[2] = Pharmacokinetics in mouse plasma and brain after single i.p. injection; assay type: in vivo; conditions: both sexes, 10 mg/kg i.p.; for Tmax / half-life / Cmax: wildtype F1, ip; for AUC: wildtype F1, mouse, 10 mg/kg
Procedure: SB2193 and SB2193F were prepared in ethanol-Tween 80%–0.9% saline (1:1:18 ratio) and valproic acid in 0.9% saline. All doses were completely soluble in this vehicle except for the 100 mg/kg SB2193 dose, which was a suspension.
Male and female wildtype F1 mice aged 21–28 days postnatal received a single i. p. injection of 10 mg/kg SB2193 or SB2193F. At selected timepoints (15–240 min), mice were anesthetised with isoflurane, blood was collected via cardiac puncture and whole brains were harvested. Brains were snap frozen on dry ice, and blood plasma was isolated via centrifugation (4,000 g for 10 min, 4^○C). Brain and plasma samples were stored at −80°C until assayed.
Plasma samples (50 μL) were spiked with an internal standard (diazepam) and vortexed with 1 M NaOH (50 μL) and methyl tert-butyl ether (1 mL) to achieve protein precipitation. The organic layer was isolated by centrifugation (4,000 g for 3 min) before being frozen for 60 min at −80°C, evaporated to dryness using N2, and reconstituted in 30% acetonitrile and 0.1% formic acid in water for analysis. Brain hemispheres were homogenised in a 10x w/v 1:1 methanol-water solution using a Biospec Tissue-Tearor (Bartlesville, United States) and centrifuged at 20,000 g for 30 min at 4°C. Supernatant (100 μL) was collected and prepared following the same method as plasma.
SB2193 and SB2193F concentrations in brain and plasma samples were assessed by high performance liquid chromatography-tandem mass spectrometry (HPLC-MS/MS) using a Shimadzu Nexera liquid chromatograph coupled with a Shimadzu 8,030 triple quadrupole mass spectrometer (Kyoto, Japan). Samples were run through a Zorbax C18 HPLC Column equipped with a Zorbax Eclipse XDB-C8 guard column (2.1 × 50 mm, 3.5 μm particle size; Agilent, Santa Clara, United States) with an injection volume of 10 μL using a gradient elution. Mobile phases of acetonitrile and 0.1% formic acid in water were delivered at a flow rate of 0.6 mL/min over 4.16 min, with a stepwise adjustment of mobile phase concentration gradient over time to optimise ion separation.
Quantification was achieved by comparing experimental samples to plasma and brain standards prepared with known concentrations of SB2193 or SB2193F. Samples were quantified against a 7-point standard curve (R ^2 > 0.98 for both analytes).
Concentrations of SB2193 or SB2193F in plasma and brain at each timepoint were averaged and concentration-time curves were generated using GraphPad Prism. Pharmacokinetic parameters were calculated using non-compartmental analysis. The linear-log trapezoidal method was used to calculate drug exposure (area under the curve, AUC) using equations previously described ([Hawkins et al., 2017]).

[3] = tested on: 6 Hz-induced seizures in Swiss mice; parameters: method as in Barton et al., 2001; conditions: 6 Hz model, ref Barton et al., 2001; cited from earlier work
[4] = tested on: 6 Hz-induced seizures in Swiss mice; experiment: 6 Hz seizure model in mice; assay type: in vivo, mouse; conditions: 300 mg/kg i.p., positive control, n = 10
Procedure: Swiss outbred mice used in 6 Hz seizure experiments were purchased from Australian Resources Centre (stock ARC(S); Canning Vale, Australia) and single housed for 1 week prior to experimentation to prevent fighting.
6 Hz seizures were induced in Swiss male mice (9–10 weeks old) using an Ugo Basile electroconvulsive therapy unit (Model 57,800; Gemonio, Italy). Mice were pre-treated with vehicle, SB2193 (10 mg/kg, 30 mg/kg, 100 mg/kg) or valproic acid (300 mg/kg) via i.p. injection 15 min before seizure induction based on the time-to-peak brain concentration determined in pharmacokinetic studies. […] A drop of 0.5% tetracaine was applied to both corneas immediately following the i.p. injection to provide local anaesthesia. Immediately prior to the electrical stimulation, saline was applied to each cornea to ensure electrical conductivity. Corneal electroshocks were administered at 44 mA, 6 Hz, 3 s shock duration, with a […] rectangular pulse width. Mice were shocked and scored by an observer blinded to treatment for the presence of twitching of the vibrissae, stun, myoclonus, rearing, forelimb clonus, and/or Straub tail. […] The ED50 for SB2193 was calculated using computer-assisted log-probit linear regression analysis ([Litchfield and Wilcoxon, 1949]). A χ^2 test was performed to assess statistical significance.

[5] = FLIPR calcium flux, HEK293 cells, n = 5–8

T1 sequence (Q9P0X4 whole entry): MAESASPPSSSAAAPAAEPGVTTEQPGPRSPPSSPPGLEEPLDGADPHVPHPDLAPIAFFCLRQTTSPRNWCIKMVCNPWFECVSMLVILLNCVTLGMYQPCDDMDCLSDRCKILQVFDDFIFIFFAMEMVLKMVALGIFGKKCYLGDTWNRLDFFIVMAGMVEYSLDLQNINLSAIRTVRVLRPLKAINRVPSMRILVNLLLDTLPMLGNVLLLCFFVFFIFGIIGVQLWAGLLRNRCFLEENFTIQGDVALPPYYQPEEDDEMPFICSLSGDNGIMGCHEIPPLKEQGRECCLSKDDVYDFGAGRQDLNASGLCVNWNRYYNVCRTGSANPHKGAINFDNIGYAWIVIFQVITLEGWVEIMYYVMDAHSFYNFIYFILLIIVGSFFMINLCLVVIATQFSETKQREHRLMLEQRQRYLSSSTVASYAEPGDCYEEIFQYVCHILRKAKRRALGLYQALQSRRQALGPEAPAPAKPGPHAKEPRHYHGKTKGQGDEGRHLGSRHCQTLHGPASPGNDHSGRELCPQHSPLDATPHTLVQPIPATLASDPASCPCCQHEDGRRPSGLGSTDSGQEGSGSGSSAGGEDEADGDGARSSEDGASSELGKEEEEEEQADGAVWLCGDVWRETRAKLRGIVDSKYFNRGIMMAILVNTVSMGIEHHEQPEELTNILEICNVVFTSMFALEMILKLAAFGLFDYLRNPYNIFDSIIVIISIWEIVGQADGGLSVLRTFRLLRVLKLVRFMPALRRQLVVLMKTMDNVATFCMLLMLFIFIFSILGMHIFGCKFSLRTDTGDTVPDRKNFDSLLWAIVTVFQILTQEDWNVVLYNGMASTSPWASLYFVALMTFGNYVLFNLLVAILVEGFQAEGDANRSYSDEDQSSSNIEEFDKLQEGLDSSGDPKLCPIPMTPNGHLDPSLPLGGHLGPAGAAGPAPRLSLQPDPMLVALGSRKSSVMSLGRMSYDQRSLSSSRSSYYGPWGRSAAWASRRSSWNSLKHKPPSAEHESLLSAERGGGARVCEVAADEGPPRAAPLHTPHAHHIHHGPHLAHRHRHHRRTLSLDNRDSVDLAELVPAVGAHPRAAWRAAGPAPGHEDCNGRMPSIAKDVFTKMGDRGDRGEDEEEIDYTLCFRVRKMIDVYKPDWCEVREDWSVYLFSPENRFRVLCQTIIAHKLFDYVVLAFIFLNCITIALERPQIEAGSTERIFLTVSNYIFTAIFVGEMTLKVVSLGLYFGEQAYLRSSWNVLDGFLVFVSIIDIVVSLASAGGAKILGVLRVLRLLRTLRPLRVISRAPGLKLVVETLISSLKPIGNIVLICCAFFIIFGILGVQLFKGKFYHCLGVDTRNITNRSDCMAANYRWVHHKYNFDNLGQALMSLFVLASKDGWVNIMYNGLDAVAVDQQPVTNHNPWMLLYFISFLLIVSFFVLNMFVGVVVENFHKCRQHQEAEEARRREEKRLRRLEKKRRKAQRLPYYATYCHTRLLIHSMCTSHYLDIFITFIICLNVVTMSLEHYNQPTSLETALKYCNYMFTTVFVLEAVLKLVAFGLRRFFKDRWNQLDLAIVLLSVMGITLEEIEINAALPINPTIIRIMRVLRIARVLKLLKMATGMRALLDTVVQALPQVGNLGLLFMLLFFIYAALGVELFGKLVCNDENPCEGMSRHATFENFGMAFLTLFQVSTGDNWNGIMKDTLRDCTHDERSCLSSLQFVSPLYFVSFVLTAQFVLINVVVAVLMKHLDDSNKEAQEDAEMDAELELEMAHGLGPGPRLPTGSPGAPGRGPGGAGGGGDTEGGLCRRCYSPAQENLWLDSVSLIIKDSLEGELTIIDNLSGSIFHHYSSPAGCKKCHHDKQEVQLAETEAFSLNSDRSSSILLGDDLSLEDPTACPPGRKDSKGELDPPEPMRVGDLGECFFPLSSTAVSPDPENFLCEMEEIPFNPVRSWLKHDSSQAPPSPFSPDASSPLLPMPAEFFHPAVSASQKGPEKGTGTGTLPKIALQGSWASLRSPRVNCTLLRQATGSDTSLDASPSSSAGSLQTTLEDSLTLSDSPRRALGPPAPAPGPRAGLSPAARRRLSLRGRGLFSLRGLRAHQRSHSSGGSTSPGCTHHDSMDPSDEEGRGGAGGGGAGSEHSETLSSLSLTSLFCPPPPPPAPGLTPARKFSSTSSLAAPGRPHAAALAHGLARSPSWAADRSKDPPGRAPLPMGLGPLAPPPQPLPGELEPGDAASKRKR
T2 sequence (O43497 whole entry): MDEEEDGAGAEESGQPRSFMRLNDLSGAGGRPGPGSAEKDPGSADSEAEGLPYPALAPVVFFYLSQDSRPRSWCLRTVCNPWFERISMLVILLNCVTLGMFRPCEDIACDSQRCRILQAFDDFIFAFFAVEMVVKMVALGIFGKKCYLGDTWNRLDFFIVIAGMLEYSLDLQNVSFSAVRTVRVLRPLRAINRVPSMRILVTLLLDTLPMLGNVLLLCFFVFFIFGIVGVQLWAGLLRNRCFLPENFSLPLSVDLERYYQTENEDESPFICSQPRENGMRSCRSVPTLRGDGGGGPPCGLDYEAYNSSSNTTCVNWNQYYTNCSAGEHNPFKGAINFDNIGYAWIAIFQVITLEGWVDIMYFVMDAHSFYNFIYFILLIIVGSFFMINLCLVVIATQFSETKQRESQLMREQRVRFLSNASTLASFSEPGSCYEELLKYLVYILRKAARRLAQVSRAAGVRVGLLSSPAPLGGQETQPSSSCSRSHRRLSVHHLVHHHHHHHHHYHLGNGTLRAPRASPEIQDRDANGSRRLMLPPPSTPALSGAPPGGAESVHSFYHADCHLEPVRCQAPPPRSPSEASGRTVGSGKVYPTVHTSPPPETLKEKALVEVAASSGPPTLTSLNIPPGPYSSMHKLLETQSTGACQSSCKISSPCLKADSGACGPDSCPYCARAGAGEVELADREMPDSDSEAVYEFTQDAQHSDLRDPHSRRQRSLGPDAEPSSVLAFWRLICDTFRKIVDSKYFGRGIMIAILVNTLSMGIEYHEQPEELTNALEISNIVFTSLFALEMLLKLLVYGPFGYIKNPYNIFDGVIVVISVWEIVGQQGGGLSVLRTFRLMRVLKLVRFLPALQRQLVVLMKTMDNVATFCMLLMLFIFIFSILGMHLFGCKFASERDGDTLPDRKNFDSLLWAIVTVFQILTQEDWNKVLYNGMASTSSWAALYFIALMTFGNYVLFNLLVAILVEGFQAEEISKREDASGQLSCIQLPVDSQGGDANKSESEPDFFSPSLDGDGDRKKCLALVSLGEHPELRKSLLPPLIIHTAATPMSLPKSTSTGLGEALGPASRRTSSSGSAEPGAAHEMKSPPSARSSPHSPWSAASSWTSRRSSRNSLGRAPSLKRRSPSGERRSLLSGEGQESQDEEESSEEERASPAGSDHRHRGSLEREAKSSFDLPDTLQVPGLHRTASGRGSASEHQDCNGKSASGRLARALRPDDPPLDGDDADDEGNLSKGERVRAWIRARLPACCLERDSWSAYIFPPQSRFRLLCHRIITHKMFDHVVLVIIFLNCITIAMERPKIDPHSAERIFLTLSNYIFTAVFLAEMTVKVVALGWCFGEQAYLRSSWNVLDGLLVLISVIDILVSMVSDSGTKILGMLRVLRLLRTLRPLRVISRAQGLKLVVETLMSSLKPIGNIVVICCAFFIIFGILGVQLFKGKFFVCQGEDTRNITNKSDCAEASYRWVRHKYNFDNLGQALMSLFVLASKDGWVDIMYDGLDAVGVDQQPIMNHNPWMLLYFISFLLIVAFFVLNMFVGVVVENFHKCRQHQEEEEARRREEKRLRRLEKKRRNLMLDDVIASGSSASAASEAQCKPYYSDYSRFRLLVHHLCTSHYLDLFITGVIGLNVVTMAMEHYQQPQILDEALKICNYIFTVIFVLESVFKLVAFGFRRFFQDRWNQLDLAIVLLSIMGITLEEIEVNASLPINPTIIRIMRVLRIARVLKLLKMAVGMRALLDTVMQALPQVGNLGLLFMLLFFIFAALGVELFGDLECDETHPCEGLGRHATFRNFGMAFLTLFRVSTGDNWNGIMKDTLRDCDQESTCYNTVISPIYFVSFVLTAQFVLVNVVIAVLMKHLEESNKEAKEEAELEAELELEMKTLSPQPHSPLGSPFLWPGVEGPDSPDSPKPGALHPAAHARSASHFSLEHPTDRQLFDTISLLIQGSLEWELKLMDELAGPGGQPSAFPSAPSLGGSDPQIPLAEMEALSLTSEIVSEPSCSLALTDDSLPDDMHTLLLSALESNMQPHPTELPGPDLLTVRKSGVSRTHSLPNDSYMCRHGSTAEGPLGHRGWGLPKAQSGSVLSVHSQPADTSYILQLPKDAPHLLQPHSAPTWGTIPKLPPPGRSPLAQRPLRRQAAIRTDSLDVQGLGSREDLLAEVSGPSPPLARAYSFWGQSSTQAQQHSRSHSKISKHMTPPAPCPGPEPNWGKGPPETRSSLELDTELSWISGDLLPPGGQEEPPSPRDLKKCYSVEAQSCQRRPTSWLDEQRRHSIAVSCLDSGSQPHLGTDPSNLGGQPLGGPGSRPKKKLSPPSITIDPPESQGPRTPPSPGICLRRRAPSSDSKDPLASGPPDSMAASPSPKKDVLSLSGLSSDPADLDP

Q: With `CC(C)[C@H]1c2ccc(F)cc2CC[C@@]1(CCN(C)CCCc1nc2ccccc2[nH]1)OC(=O)C1CC1` [NNC 55-036, reference compound] as the compound, how does the “Cav3.3 pIC50” value (human Cav3.3; [5]) read?
A: 5.9 ± 0.06

Q: What about the IC50 (human Cav3.3; FLIPR calcium flux, HEK293 cells, n = 5–8, read-out: Cav3.3 IC50) of the same compound?
A: 1.2 µM

Q: What about the “Cav3.1 pIC50” value (human Cav3.1; [5]) of the same compound?
A: 5.9 ± 0.06

Q: And the IC50 (human Cav3.1; FLIPR calcium flux, HEK293 cells, n = 5–8, read-out: Cav3.1 IC50)?
A: 1300 nM

Q: Which results are given for `CC(C)(C)OC(=O)N1CCN(C(=O)c2cn(CCCCCF)c3ccccc23)CC1` [SB2193F]?
A: inhibition of T-type channels (T-type channels): strongly inhibit; activity at cannabinoid CB1 receptors [1]: minimal activity; IC50 (human Cav3.2): 3.16 µM; IC50 (human Cav3.3): 8.6 µM; IC50 (human Cav3.1): 2300 nM; Kp ([2]; wildtype F1, brain/plasma, ip, mouse, read-out: brain-plasma ratio): 0.48; Tmax ([2]; mouse brain): ≤ 15 min; half-life ([2]; mouse brain): 14 min; Cmax ([2]; mouse brain, read-out: Cmax): 2300 ± 300 nM; Cmax ([2]; mouse brain, read-out: Cmax (μg/mL)): 0.97 ± 0.1 µg/mL; Tmax ([2]; mouse plasma): ≤ 15 min; half-life ([2]; mouse plasma): 23 min; Cmax ([2]; mouse plasma, read-out: Cmax): 3100 ± 700 nM; Cmax ([2]; mouse plasma, read-out: Cmax (μg/mL)): 1.3 ± 0.3 µg/mL; AUC ([2]; brain, ip, mouse brain, brain concentration converted assuming density of 1 g/mL): 350 ng·h/mL; AUC ([2]; plasma, ip, mouse plasma): 733 ng·h/mL

Q: Which ED50 [3] does the source give for `CCC1(C)CC(=O)NC1=O` (centres unmarked) [ethosuximide] here?
A: > 600 mg/kg

Q: Which “activity at cannabinoid CB1 receptors” value [1] does the source give for `CCCCCn1cc(C(=O)N2CCN(C)CC2)c2ccccc21` [reference compound] here?
A: minimal activity

Q: For `CCCC(CCC)C(=O)O` [valproic acid, reference compound], which “protection from seizures compared to vehicle” value [4] is on record?
A: significant protection
